{
  "source": "patent US20050009005A1",
  "about": "“Methods of using quantitative lipid metabolome data” (Lipomics Technologies, Inc., priority 2001, published 2005)",
  "origin": "cited, not measured here",
  "settings": "patients taking rosiglitazone; Fuchtenbebusch et al. 2000; cited from earlier work",
  "data": [
    {"smiles": "CN(CCOc1ccc(CC2SC(=O)NC2=O)cc1)c1ccccn1", "note": "(stereo not shown) [rosiglitazone]", "values": [
      {"measurement": "body weight of patients", "value": "gain weight"}
    ]}
  ]
}
